Test results taken from patent US20260248783A1 (ASCLETIS BIOSCIENCE CO., LTD., priority 2021, published 2026).
Counter-ions that a name gives are not always drawn.

Key:
PD-1/PD-L1 = biological target: T1, PD-1/PD-L1 (Homo sapiens, UniProt Q9NZQ7); test: PD-1/PD-L1 Homogeneous Time-Resolved Fluorescence (HTRF) Binding Assay; conditions: PD-1/PD-L1 HTRF activity; 3 nM PD1, 10 nM PD-L1, 25° C.
T1 construct: Recombinant human PD-L1 protein (19-238) with a Histag at the C-terminus; purchased AcroBiosystems PD1-H5229 (PD-L1); PD1-H5257 (PD-1)
Method in brief: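 Human PD-L1 (19-238, His-tag) 10 nM and PD-1 (25-167, Fc-tag) 3 nM preincubated 40 min with inhibitor in PBS pH 7.4, 0.05% Tween-20, 0.1% BSA, 1% DMSO, 25 °C. Eu-anti-human IgG (1 nM) and anti-His-APC (20 nM) added, 60 min, 665/620 nm ratio; IC50 from percent control activity versus log concentration.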

[1] = biological target: T2, extracellular domains of PD-L1 (Homo sapiens, UniProt Q9NZQ7); test: PD-L1 Dimerization; type: biochemical; conditions: PD-L1-Eu and PD-L1-A2, ratio 665 nm/615 nm
T2 construct: specifically dimerize the extracellular domains of PD-L1
Experimental: Example 108. PD-L1 Dimerization
Compounds were tested in biochemical protein-protein interaction assays to determine if they can specifically dimerize the extracellular domains of PD-L1. • (1) Diluted cpd 1:3 in succession in DMSO for each column for 10 samples • (2) Transferred 0.2 μL cpds solution in each row to 384 assay plate using Echo, each column containing 2 replicates • (3) Added 20 μL prepared mixture include PD-L1-Eu and PD-L1-A2 solution to assay plate, centrifuged at 1000 rpm for 1 min. • (4) Incubated at 25° C. for […]. • (5) Read fluorescence signal on Envision 2104 plate reader. • (6) Read the Ratio (665 nm/615 nm) signal on Envision. • (7) Analyzed the raw data using the equation (V. Data analysis)

[2] = tested on: Hep3B-OS8-hPDL1 and T cells; test: Hep3B-OS8-hPDL1 and T Cells Co-Culture Assay (IFN-γ by ELISA); type: cell-based; conditions: T-cell, Hep3B-OS8-hPDL1 and human CD3+ T cells, 72 hours, read-out: Tumor and T Cell EC50
Experimental: Example 110. Hep3B-OS8-hPDL1 and T Cells Co-Culture Assay
1. Hep3B-OS8-hPDL1 cells were cultured in 1640 medium supplemented with 10% fetal bovine serum, 1% penicillin and streptomycin, in which 100 μg/mL G418 and Hygromycin B were also added.
2. Hep3B-OS8-hPDL1 cells were harvested and treated with 10 μg/mL mitomycin C at 37° C. for 1.5 h, and the cells were then washed thoroughly with PBS for four times.
3. Cells were re-suspended with RPMI 1640 medium containing 10% FBS and the cell density was adjusted to 5×10^5 cells/mL.
4. Cells were seeded into 96-well flat bottom plate (2.5×10^4 cells/50 μL/well).
b. CD3+ T cells isolation (30 mL blood)
5. The human blood sample from an individual donor was diluted by the same volume of sterile PBS, for instance add 25 mL sterile PBS into 25 mL fresh whole blood and mix sufficiently by gentle shake.
6. Transferred 15 mL Lymphoprep medium into a new 50 mL centrifuge tube.
7. Added the diluted blood sample as soft as possible onto the surface of the Ficoll medium to make sure there is a clear dividing line between the two liquids, and the volume ratio between Ficoll and diluted blood (30 mL) is 1:2.
8. Moved the tube gently to centrifuge, at 1000×g, 25 min, 20° C., with the acceleration (5) and Min deceleration (0) settings during the centrifugation.
9. Four interfaces in all could be observed after the centrifugation, which are layers of plasma, mononuclear cells, the Ficoll medium and RBCs from top to bottom, and move the tube as gently as possible so as keep the four interfaces separated. Absorbed and transferred the second layer of mononuclear cells into another new sterile centrifuge tube carefully, and absorbed certain volume of plasma instead of the Ficoll medium if inevitable.
10. Added sterile PBS of the three times the volume of PBMCs in the tube with PBMC.
11. Washed the cells twice with 5-10 mL PBS before cell counting with cytometer. Centrifuge at 350×g, 10 min, 20° C. With the acceleration (5) and deceleration (5) settings during the centrifugation.
12. Resuspended the cells with recommended medium and adjust the density of the PBMCs to the final concentration of 5×10^7 cells/mL.
13. Isolated CD3+ T cells with EasySep™ Human T Cell Isolation Kit (STEMCELL Technologies #17951), and the cells were seeded into 96-well flat bottom plate (5×10^4 cells/100 μL/well). c. Compounds solutions preparation
14. Prepared the Compounds dilutions in RPMI 1640 medium with 10% FBS according to the Layout. 15. Added compounds into each well in a volume of 50 μL. {3 compounds (GLC01-258, GLC01-269, GLC01-465) in 7 concentrations (0.03, 0.1, 0.3, 1, 3, 10 and 30 μM) and 6 compounds (GLC01-411, GLC01-292, GLC01-445, GLC01-475, GLC01-470 and GLC01-468) in the same concentration (1 μM)}.
16. Keytruda was included as positive control, the concentration was 5 μg/mL. 17. Incubated for 72 hours at 37° C., 5% CO2.
18. Collected supernatant by centrifugation and measure IFN-γ by ELISA.

T1 sequence (Q9NZQ7 19-238): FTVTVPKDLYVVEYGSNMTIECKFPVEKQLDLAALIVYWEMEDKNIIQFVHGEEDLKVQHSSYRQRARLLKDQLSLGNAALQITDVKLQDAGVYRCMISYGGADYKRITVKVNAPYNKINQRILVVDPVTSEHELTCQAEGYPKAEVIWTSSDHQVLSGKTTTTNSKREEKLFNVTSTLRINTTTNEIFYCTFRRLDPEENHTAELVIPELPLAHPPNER
T2 sequence (Q9NZQ7 19-238 limits assumed): as the sequence (Q9NZQ7 19-238) above

SMILES	IC50 (PD-1/PD-L1) [nM]	EC50 [1] [nM]	EC50 [2] [nM]
Cc1cn2nc(-c3cccc(-c4cccc(-c5cc6c(=O)n(C[C@@H]7CCCN7)c(C)cn6n5)c4Cl)c3Cl)cc2c(=O)n1C[C@@H]1CCCN1 [Compound 36, 2,2′-(2,2′-dichloro-[1,1′-biphenyl]-3,3′-diyl)bis(6-methyl-5-(((S)-pyrrolidin-2-yl)methyl)pyrazolo[1,5-a]pyrazin-4(5H)-one) dihydrochloride]	< 10	< 50	< 50
Cc1cn2nc(-c3cccc(-c4cccc(-c5cc6c(=O)n(CCN7CC[C@H](C(=O)O)C7)c(C)cn6n5)c4Cl)c3Cl)cc2c(=O)n1CCN1CC[C@H](C(=O)O)C1 [Compound 47, (3S,3'S)-1,1′-(((2,2′-dichloro-[1,1′-biphenyl]-3,3′-diyl)bis(6-methyl-4-oxopyrazolo[1,5-a]pyrazine-2,5(4H)-diyl))bis(ethane-2,1-diyl))bis(pyrrolidine-3-carboxylic acid)]	< 10	50 to 100	≥ 100
Cc1cn2cc(-c3cccc(-c4cccc(-c5cc6c(=O)n(CCNCCO)c(C)cn6c5)c4Cl)c3Cl)cc2c(=O)n1CCNCCO [Compound 51, 7,7′-(2,2′-dichloro-[1,1′-biphenyl]-3,3′-diyl)bis(2-(2-((2-hydroxyethyl)amino)ethyl)-3-methylpyrrolo[1,2-a]pyrazin-1(2H)-one)]	< 10	50 to 100	50 to 100
Cc1cn2nc(-c3cccc(-c4cccc(-c5cc6c(=O)n(CCNCCO)c(C)cn6n5)c4Cl)c3Cl)cc2c(=O)n1CCNCCO [Compound 52, 2,2′-(2,2′-dichloro-[1,1′-biphenyl]-3,3′-diyl)bis(5-(2-((2-hydroxyethyl)amino)ethyl)-6-methylpyrazolo[1,5-a]pyrazin-4(5H)-one)]	< 10	< 50	50 to 100
Cc1cn2cc(-c3cccc(-c4cccc(-c5cc6c(=O)n(CCN7CC[C@H](C(=O)O)C7)c(C)cn6c5)c4Cl)c3Cl)cc2c(=O)n1CCN1CC[C@H](C(=O)O)C1 [Compound 53, (3S,3'S)-1,1′-(((2,2′-dichloro-[1,1′-biphenyl]-3,3′-diyl)bis(3-methyl-1-oxopyrrolo[1,2-a]pyrazine-7,2(1H)-diyl))bis(ethane-2,1-diyl))bis(pyrrolidine-3-carboxylic acid)]	< 10		≥ 100
Cc1cn2nc(-c3cccc(-c4cccc(-c5cc6c(=O)n(CCN[C@@H](CO)C(=O)O)c(C)cn6n5)c4Cl)c3Cl)cc2c(=O)n1CCN[C@@H](CO)C(=O)O [Compound 57, (2S,2'S)-2,2′-((((2,2′-dichloro-[1,1′-biphenyl]-3,3′-diyl)bis(6-methyl-4-oxopyrazolo[1,5-a]pyrazine-2,5(4H)-diyl))bis(ethane-2,1-diyl))bis(azanediyl))bis(3-hydroxypropanoic acid)]	< 10	50 to 100	< 50
Cc1cn2cc(-c3cccc(-c4cccc(-c5cc6c(=O)n(CCN[C@@H](CO)C(=O)O)c(C)cn6c5)c4Cl)c3Cl)cc2c(=O)n1CCN[C@@H](CO)C(=O)O [Compound 63, (2S,2'S)-2,2′-((((2,2′-dichloro-[1,1′-biphenyl]-3,3′-diyl)bis(3-methyl-1-oxopyrrolo[1,2-a]pyrazine-7,2(1H)-diyl))bis(ethane-2,1-diyl))bis(azanediyl))bis(3-hydroxypropanoic acid)]	< 10	50 to 100	≥ 100
Cn1c(C[C@@H]2CCCN2)nn2cc(-c3cccc(-c4cccc(-c5cc6c(=O)n(C)c(C[C@@H]7CCCN7)nn6c5)c4Cl)c3Cl)cc2c1=O [Compound 76, 6,6′-(2,2′-dichloro-[1,1′-biphenyl]-3,3′-diyl)bis(3-methyl-2-(((S)-pyrrolidin-2-yl)methyl)pyrrolo[2,1-f][1,2,4]triazin-4(3H)-one)]	10 to 100	< 50	50 to 100
Cc1cn2nc(-c3cccc(-c4cccc(-c5cc6c(=O)n(CCNC7(C(=O)O)CC(O)C7)c(C)cn6n5)c4Cl)c3Cl)cc2c(=O)n1CCNC1(C(=O)O)CC(O)C1 (stereo not shown) [Compound 85]	10 to 100	50 to 100	< 50
Cc1cn2nc(-c3cccc(-c4cccc(-c5cc6c(=O)n(CCN7CC[C@H](O)[C@H]7C(=O)O)c(C)cn6n5)c4Cl)c3Cl)cc2c(=O)n1CCN1CC[C@H](O)[C@H]1C(=O)O [Compound 89, (2S,2'S,3S,3'S)-1,1′-(((2,2′-dichloro-[1,1′-biphenyl]-3,3′-diyl)bis(6-methyl-4-oxopyrazolo[1,5-a]pyrazine-2,5(4H)-diyl))bis(ethane-2,1-diyl))bis(3-hydroxypyrrolidine-2-carboxylic acid)]	10 to 100		< 50
Cc1cn2nc(-c3cccc(-c4cccc(-c5cc6c(=O)n(CCN[C@@](C)(CO)C(=O)O)c(C)cn6n5)c4Cl)c3Cl)cc2c(=O)n1CCN[C@@](C)(CO)C(=O)O [Compound 95, (2S,2'S)-2,2′-((((2,2′-dichloro-[1,1′-biphenyl]-3,3′-diyl)bis(6-methyl-4-oxopyrazolo[1,5-a]pyrazine-2,5(4H)-diyl))bis(ethane-2,1-diyl))bis(azanediyl))bis(3-hydroxy-2-methylpropanoic acid)]	10 to 100	≥ 100	
Cc1cn2nc(-c3cccc(-c4cccc(-c5cc6c(=O)n(CCN[C@](C)(CO)C(=O)O)c(C)cn6n5)c4Cl)c3Cl)cc2c(=O)n1CCN[C@](C)(CO)C(=O)O [Compound 96, (2R,2′R)-2,2′-((((2,2′-dichloro-[1,1′-biphenyl]-3,3′-diyl)bis(6-methyl-4-oxopyrazolo[1,5-a]pyrazine-2,5(4H)-diyl))bis(ethane-2,1-diyl))bis(azanediyl))bis(3-hydroxy-2-methylpropanoic acid)]	10 to 100	≥ 100	
Cc1cn2nc(-c3cccc(-c4cccc(-c5cc6c(=O)n(CCN[C@]7(C(=O)O)C[C@@H](O)C7)c(C)cn6n5)c4Cl)c3Cl)cc2c(=O)n1CCN[C@]1(C(=O)O)C[C@@H](O)C1 [Compound 101, (1r,1′r,3r,3′r)-1,1′-((((2,2′-dichloro-[1,1′-biphenyl]-3,3′-diyl)bis(6-methyl-4-oxopyrazolo[1,5-a]pyrazine-2,5(4H)-diyl))bis(ethane-2,1-diyl))bis(azanediyl))bis(3-hydroxycyclobutane-1-carboxylic acid)]	< 10	< 50	
